In patent publication US20040132642A1, “Methods of inhibiting metastasis or growth of a tumor cell” (Government of the U.S.A., represented by the Secretary, …, priority 2002, published 2004):

Experiments:
[1] = tested on: CXCR4-B16 cells; test: adhesion of CXCR4-B16 cells to resting DMEC in parallel plate flow chamber; type: cell-based, murine; conditions: DMEC exposed to 100 ng/ml chemokine for 15 min; 1.5 dynes/cm^2
Method: Prior to interaction with tumor cells, resting confluent DMEC or LMEC were exposed to 100 ng/ml of recombinant CXCL12 or CCL21 for 15 min at 20° C. as described (Cinamon et al., Nat. Immunol. 2: 515-22 (2001)). After unbound chemokine was washed away, calcein-AM-labeled (Molecular Probes, Eugene, Oreg.) CXCR4- or pLNCX2-B16 cells (2.5×10^5/ml in B16 medium) were injected at 1.5 dynes/cm^2 into a parallel plate flow chamber (Glycotech, Gaithersburg, Md.) containing confluent DMEC or LMEC. In some cases, tumor cells were treated with pertussis toxin (PTX, Calbiochem, San Diego, Calif.) at 100 ng/ml for 2 hours at 37° C. to block Gi-protein-coupled signaling. After two min, flow was stopped, which enabled B16 cells to interact with MEC in the absence of shear stress. After 5 min, shear was re-established at 1.5 dynes/cm^2 for up to 2 min in order to detach unbound cells; adherent cells were digitally photographed in 5-6 random fields (each field=1.18 mm^2) with excitation at 488 nm and emission at 513 nm using sufficient exposure time (˜1 s) to allow distinction between non-moving and moving cells (which appeared as dim streaks) (Fitzhugh et al. (2000), supra). Cells were then counted with the software program IPlab (Scanalytics, Fairfax, Va.). […]

[2] = tested on: CXCR4-B16 cells; test: arrest of CXCR4-B16 cells on VCAM-1/Ig-coated plates under flow; type: cell-based, murine; conditions: CXCR4-B16 on plates co-coated with VCAM-1/Ig and 1 μg/ml chemokine; 1.5 dynes/cm^2
Method: Cell suspension plates (35 mm, Model # 430588, Corning Inc., NY) were coated with human VCAM-1/IgG chimera (1 μg/ml) overnight at 4° C. in Tris-buffered saline (Maki et al., Immunol. 169:2346-2353 (2002)). Plates were then briefly rinsed with PBS, co-coated with 1 μg/ml of CXCL12, CCL19, or no chemokine in PBS for 2 hr at 4° C., and blocked with 1% BSA/PBS for 1 hr at 4° C. Calcein-acetomethyl (AM)-labeled (Molecular Probes, Eugene, Oreg.) CXCR4-B16 or pLNCX2-B16 cells (2.5×10^5 cells/ml in cDMEM) were injected at 1.5 dynes/cm^2 into a parallel plate flow chamber (Glycotech, Gaithersburg, Md.) that had been placed over the adhesion molecule- and/or chemokine-coated suspension plate.
For dynamic assays on recombinant molecule-coated plates as well as on LMEC, tumor cells were introduced into the chamber under a constant shear stress of 1.5 dynes/cm^2 without allowing cells to settle at any time during the assay. Ten min after flow was initiated, arrested cells were digitally photographed (without flow being decreased) in 4-6 random fields (each field=1.18 mm^2) with excitation at 488 nm and emission at 513 nm using sufficient exposure time (˜1 s) to allow distinction between moving cells, which appeared as dim streaks, and stationary cells. Cells were then enumerated with the software program IPlab (Scanalytics, Fairfax, Va.). […]

[3] = tested on: pLNCX2-B16 cells; test: growth of pLNCX2-B16 cells under low serum conditions in vitro; type: cell-based, murine; conditions: for cell count pLNCX2-B16 24 h / cell count pLNCX2-B16 48 h: low serum (0.5% FCS); for effect on growth of pLNCX2-B16 cells: under either low or high serum conditions
Method: (§1) CXCR4- and pLNCX2-B16 cells (2×10^4 cells/well) were cultured in triplicate for 24 hr in 24-well plates containing B16 growth medium (DMEM, 10% FCS). After rinsing the cells in serum-free DMEM, the B16 cells were incubated for 40 hr at 37° C. in DMEM containing low serum (0.5% FCS). At this point, CXCL12 (500 ng/ml) was added to the cells by itself or with either T22 or control ALA peptide at 1 μg/ml for the indicated times. Cells were then harvested at 24 or 48 hr later and counted by a hemacytometer.

[4] = tested on: CXCR4-B16 cells; test: growth of CXCR4-B16 cells under low serum conditions in vitro; type: cell-based, murine; conditions: for effect of peptide alone on growth: T22 or ALA alone; for cell count CXCR4-B16 24 h / cell count CXCR4-B16 48 h: low serum (0.5% FCS); for block of growth stimulated by CXCL12: low serum, in the presence of CXCL12
Method: as §1

[5] = tested on: CXCR4-B16 cells; test: pulmonary metastasis after i.v. injection of CXCR4-B16 cells (lung luciferase assay); type: in vivo, mice; conditions: for effect on pulmonary metastasis: CXCR4-B16-injected mice; for effect on pulmonary metastasis / Average weight: 4 μg peptide i.p. daily; for Luciferase activity (RLU): lung, 4 μg peptide/mouse i.p. daily; for Luciferase activity (RLU) / Average weight: CXCR4-B16 cells i.v.; for Average weight: mass of the lungs; for Average Relative Luciferase Units: CXCR4-B16 i.v., 14-day assay
Method: (§2) Luciferase activity was measured using a Luciferase Reporter assay system (Promega, Madison, Wis.). Cultured cells were lysed with 100 μl of undiluted lysis buffer and then assayed in the presence of luciferin using a Thermo Labsystems MLX 96-well luminometer (Helsinki, Finland). Units are in arbitrary light units. For tissue assays, organs from each animal were homogenized in 1 ml of lysis buffer, of which 25 μl aliquots were then assayed in duplicate. Means of duplicates were used to represent the luciferase activity for a given tissue from a particular animal. Five to ten animals per experimental treatment group were used for typical experiments.
(§3) CXCR4- and pLNCX2-B16 cells in exponential growth phase were harvested by trypsinization and washed twice in PBS prior to injection. Cell viability was >95% as determined by trypan blue dye exclusion. For the footpad (i.e., subcutaneous) injection, B16 cells (4×10^5 cells in 20 μl PBS) were subcutaneously injected into the left footpads of C57BL/6 mice. Tumor growth was monitored three times per week by measurement of two maximum perpendicular tumor diameters. When tumors reached 5-7 mm in size, animals were euthanized prior to harvesting of lung and LN. Popliteal LN were removed by gently pulling skin (including the dermis and subcutaneous fat) above the popliteal fossa and carefully exposing the LN resting in the adipose tissue of the fossa with a pair of forceps. For intravenous injection, 4×10^5 CXCR4- or pLNCX2-B16 cells in 200 μl were injected into the tail veins of mice. T22 and ALA peptides in sterile PBS were administered via an intraperitoneal (i.p.) route using 4 μg peptide/mouse daily for the indicated duration of treatment. Experiments were performed 2-4 times each with similar trends.
To determine whether T22 would inhibit the CXCR4-mediated increase in metastasis, mice were injected intravenously with CXCR4-B16 and pLNCX2-B16 cells. Subgroups of CXCR4-B16 mice were treated daily with 4 μg of either T22 or ALA control peptide. CXCR4-B16 cells accumulated in greater numbers in the lung compared to pLNCX2-B16 cells (Table 4), confirming the results described in Example 2.
It has been shown that the CXCR4 inhibitory peptide, T22, blocked pulmonary metastasis of CXCR4-B16 cells when this CXCR4 inhibitor was used daily throughout the course of the 14-day metastastis assay (Murakami et al., Cancer Res. 62:7328-7334 (2002)). To determine if short-term treatment with T22 was also effective in blocking metastasis, the in vivo assay described in Murakami et al., Cancer Res. 62:7328-7334 (2002), was modified and the drug was only given for the first two days of the 14-day waiting period following i.v. injection of CXCR4-B16 and pLNCX2-B16 cells. In one group of animals, the CXCR4 antagonist peptide T22 was administered intraperitoneally (i.p.) shortly after tumor inoculation and again 24 hours later. In another group of CXCR4-B16-injected mice, T22 was given daily for 14 days.
To determine whether T22 treatment during the last 7 days of the metastasis assay could reduce tumor burden, T22 was given daily either during the entire 2-week treatment period or for just the second week (Table 9).
CXCR4-B16 and pLNCX2-B16 cells in exponential growth phase were harvested by trypsinization and washed twice in PBS before injection. Cell viability was >95% as determined by trypan blue dye exclusion. CXCR4-B16 or pLNCX2-B16 cells (4×10^5 in 200 μl PBS) were then injected into the tail veins of mice. T22 and ALA peptides in sterile PBS were administered via an i.p. route using 4 μg peptide/mouse daily for the indicated duration of treatment as described (Murakami et al., Cancer Res. 62:7328-7334 (2002)). Mice were euthanized after 14 days for gross inspection of lungs and luciferase quantification of metastasis by luciferase activity (Murakami et al., Cancer Res. 62:7328-7334 (2002)). […]

[6] = tested on: activated bone-marrow-derived dendritic cells; test: in vitro chemotaxis of dendritic cells to CXCL12; type: cell-based; conditions: T22 500 ng/ml; 200 ng/ml of CXCL12
[7] = tested on: pLNCX2-B16 cells; test: pulmonary metastasis after i.v. injection of pLNCX2-B16 cells (lung luciferase assay); type: in vivo; conditions: pLNCX2-B16-injected mice
Method: as §2
CXCR4- and pLNCX2-B16 cells in exponential growth phase were harvested by trypsinization and washed twice in PBS prior to injection. Cell viability was >95% as determined by trypan blue dye exclusion. […] Tumor growth was monitored three times per week by measurement of two maximum perpendicular tumor diameters. […]
CXCR4-B16 and pLNCX2-B16 cells in exponential growth phase were harvested by trypsinization and washed twice in PBS before injection. Cell viability was >95% as determined by trypan blue dye exclusion. […] Mice were euthanized after 14 days for gross inspection of lungs and luciferase quantification of metastasis by luciferase activity (Murakami et al., Cancer Res. 62:7328-7334 (2002)). […]

[8] = tested on: CXCR4-B16 cells; test: growth of CXCR4-B16 cells injected into the footpad; type: in vivo, mice; conditions: compared to either PBS or ALA
Method: as §3

[9] = peptide 1 μg/ml together with SDF-1 (CXCL12 500 ng/ml)
[10] = treatment alone, CXCL12 500 ng/ml, peptide 1 μg/ml

Substance | cell count pLNCX2-B16 24 h [3, 9] | cell count pLNCX2-B16 48 h [3, 9] | cell count pLNCX2-B16 24 h [3, 10] | cell count pLNCX2-B16 48 h [3, 10] | effect on growth of pLNCX2-B16 cells [3] | effect of peptide alone on growth [4] | cell count CXCR4-B16 24 h [4, 9] | cell count CXCR4-B16 48 h [4, 9] | cell count CXCR4-B16 24 h [4, 10] | cell count CXCR4-B16 48 h [4, 10] | block of growth stimulated by CXCL12 [4] | effect on pulmonary metastasis [5] | Luciferase activity (RLU) [5] [RLU] | Average weight [5] [g] | block of in vitro chemotaxis to CXCL12 [6] | further results
CCL19: an unrelated chemokine used as control | – | – | – | – | – | – | – | – | – | – | – | – | – | – | – | adherent B16-CXCR4 cells on DMEC (Table 6) [1]: 6.8; Mean adherent cells/field [2]: 17.2 cells/field
H-KWAFRVAYRGIAYRRAR-OH [ALA, reference compound] | 10.7 ± 2.9 | 22.7 ± 3.2 | 10.0 ± 1.0 | 20.3 ± 3.5 | did not affect the growth | did not significantly alter growth | 16.0 ± 1.0 | 33.3 ± 6.7 | 12.0 ± 0.1 | 22.3 ± 1.2 | but not by the control peptide | no effect | 43928 ± 29729 | 0.88 | no inhibitory effect | –
NH2-RRWCYRKCYKGYCYRKCR-COOH (H-RRWCYRKCYKGYCYRKCR-OH; cysteine pairing not given here) [T22] | 12.3 ± 0.6 | 21.7 ± 3.2 | 10.7 ± 1.2 | 21.0 ± 1.0 | did not affect the growth | did not significantly alter growth | 12.7 ± 2.1 | 20.7 ± 3.0 | 11.0 ± 1.0 | 22.0 ± 1.0 | could be blocked | reduced metastasis to levels seen in pLNCX2-B16 injected mice | 1114 ± 956 | 0.55 | block specifically | effect on metastasis [7]: did not block metastasis; Average Relative Luciferase Units ([5]; T22 daily 2nd week only): 81981.2 Relative Luciferase Units; Average Relative Luciferase Units ([5]; T22 daily for 2 weeks): 15294.5 Relative Luciferase Units; protection against CXCR4-mediated pulmonary metastasis ([5]; T22 i.p. for the first two days of the 14-day assay): as effective as giving T22 daily for the entire 2-week course; metastatic burden ([5]; T22 treatment during the second week only): same metastatic burden as PBS (mock) treatment; effect on growth of cells injected into the footpad [8]: no significant effect on the growth
